Data reported in publication PMC2747815 (Journal of immunotherapy (Hagerstown, Md. : 1997), 2009).

B1: OVA: recombinant full-length OVA protein purchased from Sigma, control protein (protein, UniProt P01012 1-386, looked up)
chain: MGSIGAASMEFCFDVFKELKVHHANENIFYCPIAIMSALAMVYLGAKDSTRTQINKVVRFDKLPGFGDSIEAQCGTSVNVHSSLRDILNQITKPNDVYSFSLASRLYAEERYPILPEYLQCVKELYRGGLEPINFQTAADQARELINSWVESQTNGIIRNVLQPSSVDSQTAMVLVNAIVFKGLWEKAFKDEDTQAMPFRVTEQESKPVQMMYQIGLFRVASMASEKMKILELPFASGTMSMLVLLPDEVSGLEQLESIINFEKLTEWTSSNVMEERKIKVYLPRMKMEEKYNLTSVLMAMGITDVFSSSANLSGISSAESLKISQAVHAAHAEINEAGREVVGSAEAGVDAASVSEEFRADHPFLFCIKHIATNAVLFFGRCVSP
modifications: full-length

What was measured:
[1] = tested on: LN cells of TRP1-/-//DR4+ (KO) and TRP1+/-//DR4+ (WT) mice, antigen pulsed onto DR4+ 1088 EBV-B; test: Ex vivo IFN-γ ELISPOT of LN cells from hTRP-1-immunized KO and WT mice; assay type: cell-based, mouse; details: for ex vivo ELISPOT reactivity, KO-derived compared with WT-derived CD4+ T cells: peptide 100 μM or protein 50 μg/ml pulsed onto 1088 EBV-B, 24 hours; for T cell frequency by ex vivo IFN-γ ELISPOT titration (mean): peptide 100 μM, Fig. 2D
[2] = tested on: LN cells of DR4 Tg mice, antigen pulsed onto DR4+ 1088 EBV-B; test: IFN-γ ELISA of expanded LN T cells from mTRP-1-immunized DR4 Tg mice; assay type: cell-based, mouse; details: protein pulsed onto DR4+ 1088 EBV-B at 25 μg/ml; compared with mTRP-1 protein
HLA-DR4 (HLA-DRB1*0401) = HLA-DR4 (HLA-DRB1*0401) (Homo sapiens, UniProt P01903+P01911, A100K/A169T/F76Y/I96L/K127E/L162R/M171V/N62H/P40V/Q125Y/R42H/S133A/S149N/S66Y/V115G/V209L/W38E); details: competitive binding assay, purified class II, 48h in PBS with NP40; Fig. 1B

| Molecule | ex vivo ELISPOT reactivity, KO-derived compared with WT-derived CD4+ T cells [1] | specific IFN-γ secretion by ELISA, protein [2] | T cell frequency by ex vivo IFN-γ ELISPOT titration (mean) ([1]; TRP1+/-//DR4+ (WT) LN cells) | T cell frequency by ex vivo IFN-γ ELISPOT titration (mean) ([1]; TRP1-/-//DR4+ (KO) LN cells) | relative affinity (IC50), human variant compared with murine counterpart (HLA-DR4 (HLA-DRB1*0401)) |
| --- | --- | --- | --- | --- | --- |
| mTRP-1 protein: recombinant murine TRP-1 protein | significantly greater | – | – | – | – |
| hTRP-1 protein: recombinant human TRP-1 protein | significantly greater | superior | – | – | – |
| hTRP-1_277-297: HLA-DRB1*0401-restricted epitope from human TRP-1, positions 277-297 (ISPNSVFSQWRVVCDSLEDYD; UniProt P17643 277-297, looked up, fragment) | – | – | 158 | 163 | nearly three times less |
| B1 | – | No significant immune response | – | – | – |
